{"source": "patent US20040106545A1", "about": "“Compounds and methods for modulating cell adhesion” (priority 1996, published 2004)", "key": {"[1]": {"tested_on": "human skin", "experiment": "Human skin permeability, Franz Cell apparatus", "method": "Another cell adhesion assay involves evaluating the effect of a modulating agent on permeability of adherent epithelial and/or endothelial cell layers. For example, the effect on permeability of human skin may be evaluated. Such skin may be derived from a natural source or may be synthetic. Human abdominal skin for use in such assays may generally be obtained from humans at autopsy within 24 hours of death. Briefly, a cyclic peptide and a test marker (e.g., the fluorescent markers Oregon Green™ and Rhodamine Green™ Dextran) may be dissolved in a sterile buffer, and the ability of the marker to penetrate through the skin and into a receptor fluid may be measured using a Franz Cell apparatus (Franz, Curr. Prob. Dermatol. 7:58-68, 1978; Franz, J. Invest. Dermatol. 64:190-195, 1975). In general, a modulating agent that enhances the permeability of human skin results in a statistically significant increase in the amount of marker in the receptor compartment after 6-48 hours in the presence of 500 μg/mL modulating agent. This assay evaluates the effect of a modulating agent on E-cadherin mediated cell adhesion.\nAbdominal skin from humans at autopsy within 24 hours of death was used in these assays. The effect of N—Ac-CHAVC-NH2 (SEQ ID NO:10) and N—Ac-CHGVC-NH2 (SEQ ID NO:11), used at a concentration of 500 μg/ml or 2.5 mg/ml, on the penetration of two fluorescent markers, Oregon Green 488 (charge −1, MW 386 daltons) and Rhodamine Green 3000 Dextran (no charge, MW 3000 daltons) through human skin was then evaluated utilizing a Franz Cell apparatus (Franz, Curr. Prob. Dermatol. 7:58-68, 1978; Franz, J. Invest. Dermatol. 64:190-195, 1975). The peptides and markers were dissolved in sterile phosphate buffer, pH 7.2, and phosphate buffer was used as the receptor fluid. 150 μl of solution containing 0.2 mg Oregon Green and 1.0 mg Rhodamine Green was used to evaluate 500 μg/ml peptide; 200 μl of solution containing 0.05 mg Oregon Green and 1.250 mg Rhodamine Green was used to evaluate 2.5 mg/ml peptide. The solution was placed on top of the epidermal side of the skin, and the penetration of the markers through the skin was assessed using a fluorescent spectrophotometric method (in a Perkin Elmer 650-105 Fluorescence Spectrophotometer, and comparing the reading to a standard curve) at 6, 12, 24, 36, and 48 hours after the start of the experiment. The fluorescent units were converted to a concentration unit of microgram/5 ml (volume of the receiver compartment) using a standard curve and regression analysis equations. The curve was linear for the concentrations tested for both markers (r^2=1 for OrG and 0.997 for RhG). For each peptide and marker combination, the experiment was performed in triplicate."}, "[2]": {"biological_target": "L1 (Homo sapiens, UniProt P32004)", "sequence (P32004 20-1257)": "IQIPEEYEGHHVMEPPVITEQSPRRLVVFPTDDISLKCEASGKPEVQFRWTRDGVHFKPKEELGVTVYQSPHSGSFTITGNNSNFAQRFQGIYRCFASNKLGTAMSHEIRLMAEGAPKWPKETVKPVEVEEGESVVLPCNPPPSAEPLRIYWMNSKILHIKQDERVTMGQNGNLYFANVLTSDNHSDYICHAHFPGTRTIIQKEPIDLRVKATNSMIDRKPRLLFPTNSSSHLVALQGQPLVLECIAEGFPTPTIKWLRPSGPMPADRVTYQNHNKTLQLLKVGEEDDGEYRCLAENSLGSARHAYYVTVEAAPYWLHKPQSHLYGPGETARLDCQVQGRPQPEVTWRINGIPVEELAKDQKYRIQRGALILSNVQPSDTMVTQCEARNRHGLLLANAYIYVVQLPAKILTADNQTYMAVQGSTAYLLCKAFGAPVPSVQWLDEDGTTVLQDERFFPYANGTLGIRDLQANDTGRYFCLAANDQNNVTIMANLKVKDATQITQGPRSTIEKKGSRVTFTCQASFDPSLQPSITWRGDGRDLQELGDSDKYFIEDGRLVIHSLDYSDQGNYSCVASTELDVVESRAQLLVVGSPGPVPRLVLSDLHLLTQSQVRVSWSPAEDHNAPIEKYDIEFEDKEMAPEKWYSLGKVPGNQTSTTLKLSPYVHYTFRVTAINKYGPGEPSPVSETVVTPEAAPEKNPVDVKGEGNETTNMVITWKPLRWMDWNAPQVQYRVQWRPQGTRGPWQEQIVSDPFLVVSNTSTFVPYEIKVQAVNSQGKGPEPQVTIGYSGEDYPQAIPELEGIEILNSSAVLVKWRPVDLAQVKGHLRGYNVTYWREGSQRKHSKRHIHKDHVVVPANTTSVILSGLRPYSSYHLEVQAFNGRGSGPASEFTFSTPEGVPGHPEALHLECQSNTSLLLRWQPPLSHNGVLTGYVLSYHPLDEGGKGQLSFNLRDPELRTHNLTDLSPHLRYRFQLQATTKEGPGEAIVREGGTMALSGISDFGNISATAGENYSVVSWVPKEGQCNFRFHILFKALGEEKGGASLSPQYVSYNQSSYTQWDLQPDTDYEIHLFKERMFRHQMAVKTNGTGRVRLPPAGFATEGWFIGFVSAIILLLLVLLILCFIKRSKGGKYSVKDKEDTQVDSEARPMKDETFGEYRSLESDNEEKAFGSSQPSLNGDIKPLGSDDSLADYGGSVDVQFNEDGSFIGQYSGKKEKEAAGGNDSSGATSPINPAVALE", "experiment": "Neurite outgrowth of rat cerebellar neurons on L1 expressing 3T3 monolayers (Example 15)", "format": "cell-based", "design": "expressed in transfected cells; rat cerebellar neurons on top", "details": "125 μg/ml; read-out: % Inhibition of L1 Response", "method": "Cell culture and neurite outgrowth assays. Co-cultures of cerebellar neurons on monolayers of control 3T3 cells and monolayers of transfected 3T3 cells that express physiological levels of chick N-cadherin or human L1 were established as previously described (Williams et al., Neuron 13:583-594, 1994). In brief, 80,000 3T3 cells (control and transfected) were plated into individual chambers of an eight-chamber tissue culture slide coated with polylysine and fibronectin and cultured in DMEM/10% FCS. After 24 hours, when confluent monolayers had formed, the medium was removed and 3000 cerebellar neurons isolated from post-natal day 2-3 rats were plated into each well in SATO media (Doherty et al., Nature 343:464-466, 1990) supplemented with 2% FCS. All of the test peptides were added immediately before the neurons as a 2× stock prepared in SATO/2% FCS. The co-cultures were maintained for 16-18 hours, at which time they were fixed and immunostained for GAP-43 which is present only in the neurons and delineates the neuritic processes. The mean length of the longest neurite per cell was measured for 150-200 neurons sampled in replicate cultures as previously described (Williams et al., Neuron 13:583-594, 1994). […] Dose-response curves were evaluated and the EC50 values determined.\nOther cell adhesion molecules, such as L1, can stimulate neurite outgrowth, and this response shares the same downstream signaling steps as the N-cadherin response. […] As previously reported, L1 stimulated neurite outgrowth from cerebellar neurons."}, "[3]": {"details": "500 μg/ml Peptide, t = 6 hours, Mean"}, "[4]": {"details": "500 μg/ml Peptide, t = 6 hours, single replicates, listed as Sample#1"}, "[5]": {"details": "500 μg/ml Peptide, t = 12 hours, Mean"}, "[6]": {"details": "500 μg/ml Peptide, t = 12 hours, single replicates, listed as Sample#1"}, "[7]": {"details": "500 μg/ml Peptide, t = 24 hours, Mean"}, "[8]": {"details": "500 μg/ml Peptide, t = 24 hours, single replicates, listed as Sample#1"}, "[9]": {"details": "500 μg/ml Peptide, t = 36 hours, Mean"}, "[10]": {"details": "500 μg/ml Peptide, t = 36 hours, single replicates, listed as Sample#1"}, "[11]": {"details": "500 μg/ml Peptide, t = 48 hours, Mean"}, "[12]": {"details": "500 μg/ml Peptide, t = 48 hours, single replicates, listed as Sample#1"}, "[13]": {"details": "2.5 mg/ml Peptide, t = 6 hours, Mean"}, "[14]": {"details": "2.5 mg/ml Peptide, t = 6 hours, single replicates, listed as Sample#1"}, "[15]": {"details": "2.5 mg/ml Peptide, t = 12 hours, Mean"}, "[16]": {"details": "2.5 mg/ml Peptide, t = 12 hours, single replicates, listed as Sample#1"}, "[17]": {"details": "2.5 mg/ml Peptide, t = 24 hours, Mean"}, "[18]": {"details": "2.5 mg/ml Peptide, t = 24 hours, single replicates, listed as Sample#1"}, "[19]": {"details": "2.5 mg/ml Peptide, t = 36 hours, Mean"}, "[20]": {"details": "2.5 mg/ml Peptide, t = 36 hours, single replicates, listed as Sample#1"}, "[21]": {"details": "2.5 mg/ml Peptide, t = 48 hours, Mean"}, "[22]": {"details": "2.5 mg/ml Peptide, t = 48 hours, single replicates, listed as Sample#1"}}, "note": "Several values for one entry are separate records, joined by “and”; a condition that tells them apart may be missing. Identical values can stand only once.", "data": [{"smiles": "CC(=O)N[C@H]1CSSC[C@@H](C(N)=O)NC(=O)[C@H](C(C)C)NC(=O)[C@H](C)NC(=O)[C@H](Cc2c[nH]cn2)NC1=O", "note": "[N—Ac—CHAVC—NH2, N-Ac-Cys-His-Ala-Val-Cys-NH2]", "values": [{"measurement": "penetration of Oregon Green through the skin, compared to control peptide", "setting": "[1]; 500 μg/ml", "result": "slightly increased the penetration of Oregon Green through the skin"}, {"measurement": "penetration of Rhodamine Green through the skin, compared to control peptide", "setting": "[1]; 500 μg/ml", "result": "significantly increased"}, {"measurement": "Percutaneous absorption concentration for Dextran Rhodamine Green 3000", "setting": "[1]; [3]", "result": 0.8, "unit": "mg/5ml"}, {"measurement": "Percutaneous absorption concentration for Oregon Green 488", "setting": "[1]; [3]", "result": 0.084, "unit": "mg/5ml"}, {"measurement": "Percutaneous absorption concentration for Dextran Rhodamine Green 3000", "setting": "[1]; [4]", "result": "0.4 mg/5ml and 0.8 mg/5ml and 1.2 mg/5ml"}, {"measurement": "Percutaneous absorption concentration for Oregon Green 488", "setting": "[1]; [4]", "result": "0.028 mg/5ml and 0.167 mg/5ml and 0.058 mg/5ml"}, {"measurement": "Percutaneous absorption concentration for Dextran Rhodamine Green 3000", "setting": "[1]; [5]", "result": 3.52, "unit": "mg/5ml"}, {"measurement": "Percutaneous absorption concentration for Oregon Green 488", "setting": "[1]; [5]", "result": 0.225, "unit": "mg/5ml"}, {"measurement": "Percutaneous absorption concentration for Dextran Rhodamine Green 3000", "setting": "[1]; [6]", "result": "3.0 mg/5ml and 2.0 mg/5ml and 5.556 mg/5ml"}, {"measurement": "Percutaneous absorption concentration for Oregon Green 488", "setting": "[1]; [6]", "result": "0.096 mg/5ml and 0.322 mg/5ml and 0.352 mg/5ml"}, {"measurement": "Percutaneous absorption concentration for Dextran Rhodamine Green 3000", "setting": "[1]; [7]", "result": 11.15, "unit": "mg/5ml"}, {"measurement": "Percutaneous absorption concentration for Oregon Green 488", "setting": "[1]; [7]", "result": 0.780, "unit": "mg/5ml"}, {"measurement": "Percutaneous absorption concentration for Dextran Rhodamine Green 3000", "setting": "[1]; [8]", "result": "16.174 mg/5ml and 4.074 mg/5ml and 13.158 mg/5ml"}, {"measurement": "Percutaneous absorption concentration for Oregon Green 488", "setting": "[1]; [8]", "result": "0.470 mg/5ml and 1.096 mg/5ml and 0.773 mg/5ml"}, {"measurement": "Percutaneous absorption concentration for Dextran Rhodamine Green 3000", "setting": "[1]; [9]", "result": 14.72, "unit": "mg/5ml"}, {"measurement": "Percutaneous absorption concentration for Oregon Green 488", "setting": "[1]; [9]", "result": 1.00, "unit": "mg/5ml"}, {"measurement": "Percutaneous absorption concentration for Dextran Rhodamine Green 3000", "setting": "[1]; [10]", "result": "21.044 mg/5ml and 5.556 mg/5ml and 17.565 mg/5ml"}, {"measurement": "Percutaneous absorption concentration for Oregon Green 488", "setting": "[1]; [10]", "result": "0.544 mg/5ml and 1.56 mg/5ml and 0.902 mg/5ml"}, {"measurement": "Percutaneous absorption concentration for Dextran Rhodamine Green 3000", "setting": "[1]; [11]", "result": 20.02, "unit": "mg/5ml"}, {"measurement": "Percutaneous absorption concentration for Oregon Green 488", "setting": "[1]; [11]", "result": 1.120, "unit": "mg/5ml"}, {"measurement": "Percutaneous absorption concentration for Dextran Rhodamine Green 3000", "setting": "[1]; [12]", "result": "25.747 mg/5ml and 6.481 mg/5ml and 27.826 mg/5ml"}, {"measurement": "Percutaneous absorption concentration for Oregon Green 488", "setting": "[1]; [12]", "result": "0.665 mg/5ml and 1.725 mg/5ml and 0.971 mg/5ml"}, {"measurement": "penetration of Oregon Green through the skin, compared to control peptide", "setting": "[1]; 2.5 mg/ml", "result": "increased the penetration of Oregon Green through the skin"}, {"measurement": "penetration of Rhodamine Green through the skin, compared to control peptide", "setting": "[1]; 2.5 mg/ml", "result": "significantly increased"}, {"measurement": "Percutaneous absorption concentration for Dextran Rhodamine Green 3000", "setting": "[1]; [13]", "result": 12.66, "unit": "mg/5ml"}, {"measurement": "Percutaneous absorption concentration for Oregon Green 488", "setting": "[1]; [13]", "result": 0.14, "unit": "mg/5ml"}, {"measurement": "Percutaneous absorption concentration for Dextran Rhodamine Green 3000", "setting": "[1]; [14]", "result": "24.52 mg/5ml and 2.4 mg/5ml and 11.05 mg/5ml"}, {"measurement": "Percutaneous absorption concentration for Oregon Green 488", "setting": "[1]; [14]", "result": "0.14 mg/5ml and 0.11 mg/5ml and 0.16 mg/5ml"}, {"measurement": "Percutaneous absorption concentration for Dextran Rhodamine Green 3000", "setting": "[1]; [15]", "result": 31.47, "unit": "mg/5ml"}, {"measurement": "Percutaneous absorption concentration for Oregon Green 488", "setting": "[1]; [15]", "result": 0.40, "unit": "mg/5ml"}, {"measurement": "Percutaneous absorption concentration for Dextran Rhodamine Green 3000", "setting": "[1]; [16]", "result": "45.35 mg/5ml and 25.22 mg/5ml and 23.83 mg/5ml"}, {"measurement": "Percutaneous absorption concentration for Oregon Green 488", "setting": "[1]; [16]", "result": "0.44 mg/5ml and 0.32 mg/5ml and 0.45 mg/5ml"}, {"measurement": "Percutaneous absorption concentration for Dextran Rhodamine Green 3000", "setting": "[1]; [17]", "result": 48.78, "unit": "mg/5ml"}, {"measurement": "Percutaneous absorption concentration for Oregon Green 488", "setting": "[1]; [17]", "result": 0.54, "unit": "mg/5ml"}, {"measurement": "Percutaneous absorption concentration for Dextran Rhodamine Green 3000", "setting": "[1]; [18]", "result": "66.28 mg/5ml and 35.22 mg/5ml and 44.85 mg/5ml"}, {"measurement": "Percutaneous absorption concentration for Oregon Green 488", "setting": "[1]; [18]", "result": "0.67 mg/5ml and 0.33 mg/5ml and 0.63 mg/5ml"}, {"measurement": "Percutaneous absorption concentration for Dextran Rhodamine Green 3000", "setting": "[1]; [19]", "result": 71.28, "unit": "mg/5ml"}, {"measurement": "Percutaneous absorption concentration for Oregon Green 488", "setting": "[1]; [19]", "result": 0.88, "unit": "mg/5ml"}, {"measurement": "Percutaneous absorption concentration for Dextran Rhodamine Green 3000", "setting": "[1]; [20]", "result": "120.0 mg/5ml and 42.36 mg/5ml and 51.50 mg/5ml"}, {"measurement": "Percutaneous absorption concentration for Oregon Green 488", "setting": "[1]; [20]", "result": "0.76 mg/5ml and 0.88 mg/5ml and 0.99 mg/5ml"}, {"measurement": "Percutaneous absorption concentration for Dextran Rhodamine Green 3000", "setting": "[1]; [21]", "result": 133.56, "unit": "mg/5ml"}, {"measurement": "Percutaneous absorption concentration for Oregon Green 488", "setting": "[1]; [21]", "result": 0.82, "unit": "mg/5ml"}, {"measurement": "Percutaneous absorption concentration for Dextran Rhodamine Green 3000", "setting": "[1]; [22]", "result": "146.79 mg/5ml and 47.00 mg/5ml and 60.1 mg/5ml"}, {"measurement": "Percutaneous absorption concentration for Oregon Green 488", "setting": "[1]; [22]", "result": "0.83 mg/5ml and 0.56 mg/5ml and 1.06 mg/5ml"}, {"measurement": "inhibition at 125 µg/mL", "setting": "[2]", "result": "41.6 ± 8.6", "unit": "%"}]}]}
